Target: T1, human TLR9 (Homo sapiens, UniProt Q9NR96)
T1 construct: host or cells: HEK-Blue cells
T1 sequence (Q9NR96 26-1032): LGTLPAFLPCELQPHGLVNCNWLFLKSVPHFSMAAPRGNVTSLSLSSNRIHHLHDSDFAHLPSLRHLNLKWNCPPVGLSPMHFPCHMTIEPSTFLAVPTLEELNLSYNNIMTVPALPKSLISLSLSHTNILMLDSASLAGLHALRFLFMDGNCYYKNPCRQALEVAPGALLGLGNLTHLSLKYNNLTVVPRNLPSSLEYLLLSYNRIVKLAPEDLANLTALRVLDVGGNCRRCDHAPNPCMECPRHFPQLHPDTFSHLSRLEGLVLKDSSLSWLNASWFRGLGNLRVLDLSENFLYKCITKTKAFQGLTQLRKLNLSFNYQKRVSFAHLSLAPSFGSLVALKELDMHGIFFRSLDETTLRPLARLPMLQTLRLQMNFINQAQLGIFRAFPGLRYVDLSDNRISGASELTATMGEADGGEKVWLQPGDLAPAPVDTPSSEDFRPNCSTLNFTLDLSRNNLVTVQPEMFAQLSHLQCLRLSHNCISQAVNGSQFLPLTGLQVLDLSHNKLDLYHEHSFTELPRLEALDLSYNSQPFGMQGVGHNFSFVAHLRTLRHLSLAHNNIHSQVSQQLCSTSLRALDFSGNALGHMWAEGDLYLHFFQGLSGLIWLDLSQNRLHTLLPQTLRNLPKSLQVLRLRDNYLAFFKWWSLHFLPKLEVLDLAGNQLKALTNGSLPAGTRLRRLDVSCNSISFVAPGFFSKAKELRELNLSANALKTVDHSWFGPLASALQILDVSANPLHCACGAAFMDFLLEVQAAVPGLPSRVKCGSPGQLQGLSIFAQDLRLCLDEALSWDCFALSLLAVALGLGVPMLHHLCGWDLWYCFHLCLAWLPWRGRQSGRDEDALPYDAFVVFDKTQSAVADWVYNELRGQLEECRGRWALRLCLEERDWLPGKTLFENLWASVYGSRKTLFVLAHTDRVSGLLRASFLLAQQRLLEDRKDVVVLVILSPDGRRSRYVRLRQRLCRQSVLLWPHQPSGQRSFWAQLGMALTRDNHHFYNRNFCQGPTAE
Test: TLR9 inhibition reporter assay (HEK-Blue cells, SEAP reporter, ODN2006 stimulation)
Format: cell-based
Conditions: HEK-Blue cells overexpressing human TLR9, ODN2006 5 nM
In short: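 Dose–response from 0.05 nM to 50 μM was run in HEK-Blue human TLR7, TLR8 and TLR9 reporter cells. After 30 min at room temperature with compound, ligand was added (TLR7 gardiquimod 7.5 μM; TLR8 R848 15.9 μM; TLR9 ODN2006 5 nM) and SEAP measured next day, at 22 h.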

Row | SMILES | IC50 [µM]
1 | COc1ccc(-c2[nH]c3ccc(C4CCN(CC(=O)N(C)CCCN(C)C)CC4)cc3c2CC(F)(F)F)cc1OC [Example 365, 2-(4-(2-(3,4-dimethoxyphenyl)-3-(2,2,2-trifluoroethyl)-1H-indol-5-yl)piperidin-1-yl)-N-(3-(dimethylamino)propyl)-N-methylacetamide] | 0.19
2 | COc1ccc(-c2[nH]c3ccc(C4CCN(CC(=O)NCC#N)CC4)cc3c2CC(F)(F)F)cc1OC [Example 381, N-(cyanomethyl)-2-(4-(2-(3,4-dimethoxyphenyl)-3-(2,2,2-trifluoroethyl)-1H-indol-5-yl)piperidin-1-yl)acetamide] | 5.91

Reference: patent US11180474B2 (BRISTOL-MYERS SQUIBB COMPANY, priority 2016, dated 2021)
